Source: EP3046573B1, “AMYLIN ANALOGUES” (Zealand Pharma A/S, priority 2013, dated 2015)
Numbered stars: 1 amine (or outer) side, 2 acyl side, 3 side chain; on linkers, the order of the positions; unused ones are H or OH. Bridge positions count the residues as written; N and C are the ends. Square brackets hold non-standard residues; d marks the D form. Peptide text beside a SMILES is read from it. * marks the point of attachment. C20 diacid = O=C(O)CCCCCCCCCCCCCCCCCCC(=O)*; γGlu = O=C(O)[C@H](CCC(=O)[*:2])N[*:1]; NMeI = CC[C@H](C)[C@H](NC)C(=O)O; Sar = CNCC(=O)O

Key:
[1] = Solubility assessment (turbidity absorbance at 325 nm); format: physicochemical; conditions: stock 2 mg/ml diluted 1:1, ambient temperature (typically 25°C), n=1; for Solubility, Acetate buffer pH 4: 100 mM acetate buffer pH 4.0; for Solubility, Acetate buffer pH 5: 100 mM acetate buffer pH 5.0; for Solubility, Histidine buffer pH 6: 100 mM histidine buffer pH 6.0; for Solubility, Histidine buffer pH 7: 100 mM histidine buffer pH 7.0; for Solubility, Phosphate buffer pH 6: 100 mM phosphate buffer pH 6.0; for Solubility, Phosphate buffer pH 7: 100 mM phosphate buffer pH 7.0; for Solubility, Phosphate buffer pH 7.5: 100 mM phosphate buffer pH7.5
In short: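 Stock 2 mg/ml peptide, H2O/HCl pH 2.5; 1:1 into 100 mM buffers: acetate pH 4.0/5.0, His pH 6.0/7.0, phosphate pH 6.0/7.0/7.5. A280 + A325, ~25°C, n=1. Soluble ≥ 1 mg/ml if A325 ≤ 0.02.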

[2] = target: T1, human amylin receptor 3 (hAMYR3) consisting of hCTR2 co-expressed with human Receptor Activity Modifying Protein 3 (hRAMP3) (Homo sapiens, UniProt O60896+P30988); experiment: hAMYR3 assay: induction of cAMP (AlphaScreen cAMP Assay kit) in COS7 cells expressing hAMYR3; format: cell-based; conditions: cAMP induction in COS7 cells expressing hAMYR3; average of a minimum of 3 determinations; read-out: hAMY R3 EC50
T1 construct: expressed in transfected cells
T1 sequence (P30988 25-474): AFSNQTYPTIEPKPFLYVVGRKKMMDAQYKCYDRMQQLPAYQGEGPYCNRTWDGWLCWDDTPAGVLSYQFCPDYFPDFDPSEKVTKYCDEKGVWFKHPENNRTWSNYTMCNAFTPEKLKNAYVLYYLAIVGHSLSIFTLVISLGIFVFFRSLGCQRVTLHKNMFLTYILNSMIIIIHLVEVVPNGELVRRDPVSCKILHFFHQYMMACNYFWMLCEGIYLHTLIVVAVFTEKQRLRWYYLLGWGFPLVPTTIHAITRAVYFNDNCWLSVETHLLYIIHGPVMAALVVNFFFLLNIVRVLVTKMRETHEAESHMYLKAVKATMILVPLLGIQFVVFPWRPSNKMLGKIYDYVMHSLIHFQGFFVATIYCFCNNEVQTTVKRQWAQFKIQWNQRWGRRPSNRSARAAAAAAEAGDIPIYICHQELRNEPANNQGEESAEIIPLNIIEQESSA
T1 sequence (O60896 24-148 partner): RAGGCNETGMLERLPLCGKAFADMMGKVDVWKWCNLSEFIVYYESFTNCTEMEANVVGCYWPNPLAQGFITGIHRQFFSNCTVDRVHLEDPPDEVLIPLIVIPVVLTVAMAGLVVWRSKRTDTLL
In short: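 Stable COS7 clone co-expressing hCTR2 and hRAMP3, stimulated 15 min at 37° C with increasing peptide in Tyrode buffer pH 7.4 with 100 µM IBMX and 0.1% casein. cAMP measured by AlphaScreen after lysis; EC50 and % efficacy versus pramlintide from 4PL fit.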

[3] = target: T2, human calcitonin receptor (hCTR2) (Homo sapiens, UniProt P30988); experiment: hCTR2 assay: induction of cAMP (AlphaScreen cAMP Assay kit) in COS7 cells expressing hCTR2; format: cell-based
T2 construct: expressed in transfected cells
T2 sequence (P30988 25-474): T1 sequence (P30988 25-474)
In short: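 Functional agonism is measured as cAMP accumulation in a COS7 line stably transfected with hCTR2, lacking endogenous RAMPs. Peptides act for 15 min at 37° C with IBMX present, and curves are fitted with a 4-parameter logistic model.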

[4] = Assessment of physical stability: fibril formation detected with Thioflavin T (ThT), lag-time; format: physicochemical; conditions: 1 mg/ml peptide, 40 µM ThT, FND = Fibrillation not detected; for Fibrillation lag time (hours) pH 4.0 (Ac): 50 mM acetate buffer pH 4.0, 96 hours at 40°C; for Fibrillation lag time (hours) pH 7.0 (Ph): 50 mM phosphate buffer pH 7.0, 96 hours at 40°C
Experimental: Solutions containing (i) 1 mg/ml of test peptide, 40 µM ThT and 50 mM phosphate (Ph) buffer (pH 7.0), (ii) 1 mg/ml of test peptide, 40 µM ThT and 50 mM histidine (His) buffer (pH 7.0), and (iii) 1 mg/ml of test peptide, 40 µM ThT and 50 mM acetate (Ac) buffer (pH 4.0), were loaded in a 96-well black fluorescence plate (clear bottom) in triplicate. Data were collected at fixed intervals of 10 min, each preceded by 300 s of automixing (agitation), over a period of 96 hours at 40° C. Physical stability, expressed as lag-time of fibril formation (in hours), was defined as the intersection between two linear regressions representing the initial stable phase and the growth phase.

| SMILES | Solubility, Acetate buffer pH 4 [1] | Solubility, Acetate buffer pH 5 [1] | Solubility, Histidine buffer pH 6 [1] | Solubility, Histidine buffer pH 7 [1] | Solubility, Phosphate buffer pH 6 [1] | Solubility, Phosphate buffer pH 7 [1] | Solubility, Phosphate buffer pH 7.5 [1] | EC50 [2] [nM] | EC50 [3] [nM] | Fibrillation lag time (hours) pH 4.0 (Ac) [4] | Fibrillation lag time (hours) pH 7.0 (Ph) [4] |
| --- | --- | --- | --- | --- | --- | --- | --- | --- | --- | --- | --- |
| CC[C@H](C)[C@@H](C(=O)N[C@@H](CC(C)C)C(=O)N[C@@H](CO)C(=O)N[C@@H](CO)C(=O)N[C@H](C(=O)N[C@@H](CC(N)=O)C(=O)N[C@H](C(=O)NCC(=O)N[C@@H](CO)C(=O)N[C@@H](CC(N)=O)C(=O)N[C@H](C(=O)N1CCC[C@H]1C(N)=O)[C@@H](C)O)C(C)C)[C@@H](C)O)N(C)C(=O)CN(C)C(=O)[C@H](Cc1ccccc1)NC(=O)[C@H](CC(N)=O)NC(=O)[C@H](CC(N)=O)NC(=O)[C@H](CO)NC(=O)[C@H](CO)NC(=O)[C@H](Cc1c[nH]cn1)NC(=O)[C@H](Cc1c[nH]cn1)NC(=O)[C@H](CC(C)C)NC(=O)[C@H](Cc1ccccc1)NC(=O)[C@H](CCC(=O)O)NC(=O)[C@H](C)NC(=O)[C@H](CC(C)C)NC(=O)[C@H](CCCNC(=N)N)NC(=O)[C@H](CCC(N)=O)NC(=O)[C@@H](NC(=O)[C@H](C)NC(=O)[C@@H]1CSSC[C@H](NC(=O)[C@H](CCCNC(=N)N)NC(=O)CC[C@H](NC(=O)CCCCCCCCCCCCCCCCCCC(=O)O)C(=O)O)C(=O)N[C@@H](CC(N)=O)C(=O)N[C@@H]([C@@H](C)O)C(=O)N[C@@H](C)C(=O)N[C@@H]([C@@H](C)O)C(=O)N1)[C@@H](C)O [Compound 2, [19CD]-isoGlu-RC()NTATC()ATQRLAEFLHHSSNNF-Gly(Me)-Ile(Me)-LSSTNVGSNTP-NH2] ({C20 diacid-γGlu}-RCNTATCATQRLAEFLHHSSNNF[Sar][NMeI]LSSTNVGSNTP-NH2; disulfide 2-7) | SS (SS indicates solubility ≥ 1mg/ml) | SS (SS indicates solubility ≥ 1mg/ml) | SS (SS indicates solubility ≥ 1mg/ml) | SS (SS indicates solubility ≥ 1mg/ml) | SS (SS indicates solubility ≥ 1mg/ml) | SS (SS indicates solubility ≥ 1mg/ml) | II (II indicates solubility ≤ 1 mg/ml) | 0.26 | 0.16 | FND^&& | FND^&& |
| CC[C@H](C)[C@@H](C(=O)N[C@@H](CC(C)C)C(=O)N1CCC[C@H]1C(=O)N1CCC[C@H]1C(=O)N[C@H](C(=O)N[C@@H](CC(N)=O)C(=O)N[C@H](C(=O)NCC(=O)N[C@@H](CO)C(=O)N[C@@H](CC(N)=O)C(=O)N[C@H](C(=O)N1CCC[C@H]1C(N)=O)[C@@H](C)O)C(C)C)[C@@H](C)O)N(C)C(=O)[C@@H]1CCCN1C(=O)CN(C)C(=O)[C@H](Cc1ccccc1)NC(=O)[C@H](CC(N)=O)NC(=O)[C@H](CC(N)=O)NC(=O)[C@H](CO)NC(=O)[C@H](CO)NC(=O)[C@H](Cc1c[nH]cn1)NC(=O)[C@H](Cc1c[nH]cn1)NC(=O)[C@H](CC(C)C)NC(=O)[C@H](Cc1ccccc1)NC(=O)[C@H](CCC(=O)O)NC(=O)[C@H](C)NC(=O)[C@H](CC(C)C)NC(=O)[C@H](CCCNC(=N)N)NC(=O)[C@H](CCC(N)=O)NC(=O)[C@@H](NC(=O)[C@H](C)NC(=O)[C@@H]1CSSC[C@H](NC(=O)[C@H](CCCNC(=N)N)NC(=O)CC[C@H](NC(=O)CCCCCCCCCCCCCCCCCCC(=O)O)C(=O)O)C(=O)N[C@@H](CC(N)=O)C(=O)N[C@@H]([C@@H](C)O)C(=O)N[C@@H](C)C(=O)N[C@@H]([C@@H](C)O)C(=O)N1)[C@@H](C)O [Compound 175, [19CD]-isoGlu-RC()NTATC()ATQRLAEFLHHSSNNF-Gly(Me)-P-Ile(Me)-LPPTNVGSNTP-NH2] ({C20 diacid-γGlu}-RCNTATCATQRLAEFLHHSSNNF[Sar]P[NMeI]LPPTNVGSNTP-NH2; disulfide 2-7) | SS (SS indicates solubility ≥ 1mg/ml) | SS (SS indicates solubility ≥ 1mg/ml) | SS (SS indicates solubility ≥ 1mg/ml) | SS (SS indicates solubility ≥ 1mg/ml) | SS (SS indicates solubility ≥ 1mg/ml) | SS (SS indicates solubility ≥ 1mg/ml) | II (II indicates solubility ≤ 1 mg/ml) | 0.2 | 0.2 | FND | FND |
